Literature values as cited in patent US7312209B2, “Acridone inhibitors of IMPDH enzyme” (Bristol-Myers Squibb Company, priority 2001, dated 2007).

How the values were obtained:
[1] = system: IMPDH types I and II; settings: RT-PCR; low and high concentrations
[2] = system: antigen-specific T lymphocyte responses; settings: in combination with Rol 10^−7 M
[3] = system: IL-2, IL-4, and IFN; settings: RT-PCR; Rol 10^−7 M, MPA 10^−8 M

| Structure (SMILES) | gene expression for IMPDH types I and II [1] | synergistic effect on inhibition of antigen-induced proliferation [2] | downregulation in the generation of proinflammatory cytokines (IL-2, IL-4, IFN) [3] |
| --- | --- | --- | --- |
| COc1c(C)c2c(c(O)c1C/C=C(\C)CCC(=O)O)C(=O)OC2 [MPA, mycophenolic acid] | remained unaffected | marked synergistic effect | no significant downregulation |
| COc1ccc(C2CNC(=O)C2)cc1OC1CCCC1 (stereo not drawn) [Rol, 4-[3-(cyclopentyloxy)-4-methoxy-phenyl]-2-pyrrolidinone] | remained unaffected |  | no significant downregulation |
| C=CC[C@@H]1/C=C(\C)C[C@H](C)C[C@H](OC)[C@H]2O[C@@](O)(C(=O)C(=O)N3CCCC[C@H]3C(=O)O[C@H](/C(C)=C/[C@@H]3CC[C@@H](O)[C@H](OC)C3)[C@H](C)[C@@H](O)CC1=O)[C@H](C)C[C@@H]2OC [tacrolimus] |  | little or no synergistic effect |  |
